Results reported in patent US20100317621A1, “BETA-LACTAMASE INHIBITORS” (priority 2007, published 2010).
Counter-ions that a name gives are not always drawn. Like-named read-outs stand apart in the source and are kept apart here.

Columns and labels:
Assay in all cases: biochemical
[1] = biological target: T1, P99 AmpC β-lactamase (Enterobacter cloacae, UniProt P05364); assay type: biochemical
T1 construct: The β-lactamases were extracted by four cycles of freezing and thawing followed by centrifugation; endogenous in cells; host or cells: Enterobacter cloacae cells containing P99 (crude freeze-thaw extract)
Description: (§1) Isolation of β-lactamases. Crude β-lactamase extracts were prepared from 20 ml overnight cultures with shaking. Escherichia coli cells containing SHV-5 or CTXM-15 and Enterobacter cloacae cells containing P99 were further diluted 10-fold and grown to mid-log phase (OD at 600 nm, 0.5-0.8) in Mueller-Hinton II (MH-II) broth at 37° C. The cells were pelleted at 5000 g, washed and resuspended in 2 mL PBS pH 7.0. The β-lactamases were extracted by four cycles of freezing and thawing followed by centrifugation. β-lactamase activity in the extracts was measured with the chromogenic cephalosporin nitrocefin. The amount of protein in each β-lactamase preparation was determined by the bicinchoninic acid (BCA) assay.
(§2) β-lactamase Inhibition. To determine the level of inhibition of β-lactamase enzymes, compounds were diluted in PBS at pH 7.0 to yield concentrations between 100 and 0.005 μM in microtiter plates. An equal volume of diluted enzyme stock was added, and the plates were incubated at 37° C. for 10 min. Nitrocefin solution was then dispensed as substrate into each well at a final concentration of 100 μM, and the plates were immediately read with the kinetic program at 486 nm for 10 min on the SPECTRAMAX® Plus^384 (high-throughput microplate spectrophotometer; Molecular Devices Corp., Sunnyvale, Calif.). Maximum rates of metabolism were then compared to those in control wells (without inhibitors), and percentages of enzyme inhibition were calculated for each concentration of inhibitor. The concentration of inhibitor needed to reduce the initial rate of hydrolysis of substrate by 50% (IC50) was calculated as the residual activity of β-lactamase at 486 nm using the SoftMax Pro 5.0 software (Molecular Devices Corp.).

[2] = biological target: T2, CTXM-15 β-lactamase (Escherichia coli, UniProt Q9EXV5); assay type: biochemical; conditions: crude enzyme extract, 10 min preincubation at 37° C., nitrocefin 100 μM, PBS pH 7.0; read-out: CTXM-15 IC50 Range
T2 construct: The β-lactamases were extracted by four cycles of freezing and thawing followed by centrifugation; endogenous in cells; host or cells: Escherichia coli cells containing CTXM-15 (crude freeze-thaw extract)
Description: as §1, §2

[3] = biological target: T3, SHV-5 β-lactamase (Klebsiella pneumoniae, UniProt P0A3M1); assay type: biochemical, Escherichia coli
T3 construct: The β-lactamases were extracted by four cycles of freezing and thawing followed by centrifugation; endogenous in cells; host or cells: Escherichia coli cells containing SHV-5 (crude freeze-thaw extract)
Description: as §1, §2

[4] = crude enzyme extract, 10 min preincubation at 37° C., nitrocefin 100 μM, PBS pH 7.0, read-out: P99 AmpC IC50 Range
[5] = crude enzyme extract, 10 min preincubation at 37° C., nitrocefin 100 μM, PBS pH 7.0, read-out: SHV-5 IC50 Range

T1 sequence (P05364 21-381): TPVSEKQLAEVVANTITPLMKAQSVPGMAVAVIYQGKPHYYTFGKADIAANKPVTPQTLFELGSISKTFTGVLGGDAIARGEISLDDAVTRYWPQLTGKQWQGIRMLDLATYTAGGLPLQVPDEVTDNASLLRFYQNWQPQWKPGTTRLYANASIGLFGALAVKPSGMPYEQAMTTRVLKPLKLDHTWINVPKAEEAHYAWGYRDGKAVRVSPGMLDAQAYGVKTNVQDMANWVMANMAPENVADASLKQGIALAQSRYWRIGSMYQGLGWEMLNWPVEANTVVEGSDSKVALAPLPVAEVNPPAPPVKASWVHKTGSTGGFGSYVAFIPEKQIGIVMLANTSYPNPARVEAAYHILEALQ
T2 sequence (Q9EXV5 29-291): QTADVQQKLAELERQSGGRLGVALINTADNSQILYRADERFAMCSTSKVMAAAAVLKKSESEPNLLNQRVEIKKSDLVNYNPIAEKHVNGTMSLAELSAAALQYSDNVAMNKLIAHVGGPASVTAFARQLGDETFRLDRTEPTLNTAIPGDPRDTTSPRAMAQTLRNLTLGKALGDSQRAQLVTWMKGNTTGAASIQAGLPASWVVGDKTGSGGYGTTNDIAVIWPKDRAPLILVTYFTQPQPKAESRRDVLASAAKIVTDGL
T3 sequence (P0A3M1 22-286): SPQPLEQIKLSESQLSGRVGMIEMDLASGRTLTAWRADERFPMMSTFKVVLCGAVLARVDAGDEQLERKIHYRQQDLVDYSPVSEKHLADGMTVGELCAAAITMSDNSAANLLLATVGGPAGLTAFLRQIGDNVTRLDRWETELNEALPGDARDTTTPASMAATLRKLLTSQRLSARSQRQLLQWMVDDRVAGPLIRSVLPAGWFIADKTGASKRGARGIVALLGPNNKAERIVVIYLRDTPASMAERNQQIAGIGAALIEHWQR

SMILES | IC50 [1, 4] | IC50 [2] | IC50 [3, 5] | IC50 [1] | IC50 [3]
O=C(Cc1cccc(Cl)c1)N[C@@H](Cc1cccc(C(=O)O)c1)B(O)O [Example 3, (1R)-1-(3-Chlorophenylacetylamino)-2-(3-carboxyphenyl)ethyl-1-boronic acid] | 100 to 1000 nM | < 100 nM | < 100 nM |  | 
O=C(O)COc1cccc(CC(=O)N[C@@H](Cc2cccc(C(=O)O)c2)B(O)O)c1 [Example 27, (1R)-1-(2-(3-carboxymethoxy)phenylacetylamino)-2-(3-carboxyphenyl)ethyl-1-boronic acid] | 100 to 1000 nM | 100 to 1000 nM | < 100 nM |  | 
O=C(Cc1ccc2ccccc2c1)N[C@@H](Cc1cccc(C(=O)O)c1)B(O)O [Example 23, (1R)-1-(2-naphthalen-2-yl-acetylamino)-2-(3-carboxyphenyl)ethyl-1-boronic acid] | < 100 nM | < 100 nM | < 100 nM |  | 
O=C(CCCc1cccs1)N[C@@H](Cc1cccc(C(=O)O)c1)B(O)O [Example 35, (1R)-1-(4-Thiophen-2-yl-butyrylamino)-2-(3-carboxyphenyl)ethyl-1-boronic acid] | > 1000 nM | 100 to 1000 nM | 100 to 1000 nM |  | 
COc1ccc(OC)c(CC(=O)N[C@@H](Cc2cccc(C(=O)O)c2)B(O)O)c1 [Example 4, (1R)-1-(2,5-Dimethoxyphenylacetylamino)-2-(3-carboxyphenyl)ethyl-1-boronic acid] | 100 to 1000 nM |  | > 1000 nM |  | 
CC(CO)Oc1cccc(CC(=O)N[C@@H](Cc2cccc(C(=O)O)c2)B(O)O)c1 (stereo partly drawn) [Example 32, (1R)-1-{2-[3-(2-Hydroxy-1-methyl-ethoxy)-phenyl]-acetylamino}-2-(3-carboxyphenyl)ethyl-1-boronic acid] | 100 to 1000 nM | < 100 nM | < 100 nM |  | 
O=C(Cc1cccc2ccccc12)N[C@@H](Cc1cccc(C(=O)O)c1)B(O)O [Example 15, (1R)-1-(2-naphthalen-1-yl-acetylamino)-2-(3-carboxyphenyl)ethyl-1-boronic acid] | > 1000 nM |  | > 1000 nM |  | 
O=C(Cc1cc(F)ccc1F)N[C@@H](Cc1cccc(C(=O)O)c1)B(O)O [Example 6, (1R)-1-(2,5-Difluorophenylacetylamino)-2-(3-carboxyphenyl)ethyl-1-boronic acid] | 100 to 1000 nM |  | < 100 nM |  | 
O=C(CCC(=NO)c1cccs1)N[C@@H](Cc1cccc(C(=O)O)c1)B(O)O [Example 37, (1R)-1-(4-Hydroxyimino-4-thiophen-2-yl-butyrylamino)-2-(3-carboxyphenyl)ethyl-1-boronic acid] | 100 to 1000 nM | 100 to 1000 nM | > 1000 nM |  | 
O=C(Cc1ccc(C(F)(F)F)cc1)N[C@@H](Cc1cccc(C(=O)O)c1)B(O)O [Example 9, (1R)-1-(4-Trifluoromethylphenylacetylamino)-2-(3-carboxyphenyl)ethyl-1-boronic acid] | 100 to 1000 nM | < 100 nM | < 100 nM |  | 
O=C(CCc1cccs1)N[C@@H](Cc1cccc(C(=O)O)c1)B(O)O [Example 10, (1R)-1-(3-thiophene-2-yl-propionylamino)-2-(3-carboxyphenyl)ethyl-1-boronic acid] | > 1000 nM | 100 to 1000 nM | > 1000 nM |  | 
O=C(Cc1ccc(Cl)cc1)N[C@@H](Cc1cccc(C(=O)O)c1)B(O)O [Example 19, (1R)-1-(4-Chlorophenylacetylamino)-2-(3-carboxyphenyl)ethyl-1-boronic acid] | 100 to 1000 nM | < 100 nM | < 100 nM |  | 
O=C(Cc1ccccc1Br)N[C@@H](Cc1cccc(C(=O)O)c1)B(O)O [Example 20, (1R)-1-(2-Bromophenylacetylamino)-2-(3-carboxyphenyl)ethyl-1-boronic acid] | 100 to 1000 nM |  | 100 to 1000 nM |  | 
O=C(Cc1ccc(Br)cc1)N[C@@H](Cc1cccc(C(=O)O)c1)B(O)O [Example 16, (1R)-1-(4-Bromophenylacetylamino)-2-(3-carboxyphenyl)ethyl-1-boronic acid] | > 1000 nM |  | 100 to 1000 nM |  | 
O=C(Cc1cccs1)N[C@@H](Cc1ccc(Cl)c(C(=O)O)c1)B(O)O [Example 18, (1R)-1-(2-thiophene-2-yl-acetylamino)-2-(3-carboxy-4-chlorophenyl)ethyl-1-boronic acid] | 100 to 1000 nM |  | < 100 nM |  | 
CN1CCC(Oc2cccc(CC(=O)NC(Cc3cccc(C(=O)O)c3)B(O)O)c2)C1 [Example 28, (1R)-1-(2-[3-(1-methyl-pyrrolidin-3-yloxy)-phenyl]-acetylamino)-2-(3-carboxyphenyl)ethyl-1-boronic acid] |  | 100 to 1000 nM |  | < 100 nM | 100 to 1000 nM
O=C(CC1CCCCC1)N[C@@H](Cc1cccc(C(=O)O)c1)B(O)O [Example 5, (1R)-1-(Cyclohexylacetylamino)-2-(3-carboxyphenyl)ethyl-1-boronic acid] | > 1000 nM |  | > 1000 nM |  | 
COc1ccc(CC(=O)N[C@@H](Cc2cccc(C(=O)O)c2)B(O)O)cc1 [Example 25, (1R)-1-(4-Methoxyphenylacetylamino)-2-(3-carboxyphenyl)ethyl-1-boronic acid] | 100 to 1000 nM | < 100 nM | < 100 nM |  | 
NCCCOc1cccc(CC(=O)N[C@@H](Cc2cccc(C(=O)O)c2)B(O)O)c1 [Example 31, (1R)-1-{2-[3-(3-Amino-propyloxy)-phenyl]-acetylamino}-2-(3-carboxyphenyl)ethyl-1-boronic acid hydrochloride] | 100 to 1000 nM | 100 to 1000 nM | 100 to 1000 nM |  | 
COc1ccc(C(=O)CCC(=O)N[C@@H](Cc2cccc(C(=O)O)c2)B(O)O)cc1 [Example 38, (1R)-1-(4-(4-Methoxy-phenyl)-4-oxo-butyrylamino)-2-(3-carboxyphenyl)ethyl-1-boronic acid] | 100 to 1000 nM | 100 to 1000 nM | 100 to 1000 nM |  | 
Cc1ccc(C(=O)O)cc1C[C@H](NC(=O)Cc1cccs1)B(O)O [Example 13, (1R)-1-(2-thiophene-2-yl-acetylamino)-2-(5-carboxy-2-methylphenyl)ethyl-1-boronic acid] | > 1000 nM | 100 to 1000 nM | < 100 nM |  | 
O=C(Cc1cccc(C(=O)O)c1)N[C@@H](Cc1cccc(C(=O)O)c1)B(O)O [Example 17, (1R)-1-(3-Carboxyphenylacetylamino)-2-(3-carboxyphenyl)ethyl-1-boronic acid] | > 1000 nM |  | 100 to 1000 nM |  | 
O=C(Cc1cccc(Br)c1)N[C@@H](Cc1cccc(C(=O)O)c1)B(O)O [Example 7, (1R)-1-(3-Bromophenylacetylamino)-2-(3-carboxyphenyl)ethyl-1-boronic acid] | 100 to 1000 nM |  | 100 to 1000 nM |  | 
Cn1c(CC(=O)N[C@@H](Cc2cccc(C(=O)O)c2)B(O)O)cc2ccccc21 [Example 14] | 100 to 1000 nM | 100 to 1000 nM | < 100 nM |  | 
O=C(Cc1ccccc1Cl)N[C@@H](Cc1cccc(C(=O)O)c1)B(O)O [Example 24, (1R)-1-(2-Chlorophenylacetylamino)-2-(3-carboxyphenyl)ethyl-1-boronic acid] | 100 to 1000 nM | > 1000 nM | < 100 nM |  | 
O=C(Cc1cccc(C(F)(F)F)c1)N[C@@H](Cc1cccc(C(=O)O)c1)B(O)O [Example 8, (1R)-1-(3-Trifluoromethylphenylacetylamino)-2-(3-carboxyphenyl)ethyl-1-boronic acid] | > 1000 nM | 100 to 1000 nM | 100 to 1000 nM |  | 
COc1ccc(CC(=O)N[C@@H](Cc2cccc(C(=O)O)c2)B(O)O)c(Br)c1 [Example 26, (1R)-1-(2-Bromo-4-methoxyphenylacetylamino)-2-(3-carboxyphenyl)ethyl-1-boronic acid] | 100 to 1000 nM | 100 to 1000 nM | 100 to 1000 nM |  | 
